Measurements published in PubChem BioAssay (NCI).
Values joined by “and” are separate entries in the source; they are usually repeats but may differ in a detail not shown here. Equal entries are not always repeated.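 In this assay, cells in 96-well plates receive the compound at five concentrations for 48 hours. Endpoints are linearly interpolated between the surrounding concentrations. Abbreviation: GI50, concentration required for 50% inhibition of growth. TGI marks complete inhibition of growth.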

What was measured:
Assay in all cases: growth of human tumour cells (NCI), 48 h
U251 CNS = tested on: U251 CNS
UACC-62 melanoma = tested on: UACC-62 melanoma
SR leukemia = tested on: SR leukemia
SF-268 CNS = tested on: SF-268 CNS
HS 578T breast = tested on: HS 578T breast
A549 NSCLC = tested on: A549 NSCLC
HOP-92 NSCLC = tested on: HOP-92 NSCLC
MALME-3M melanoma = tested on: MALME-3M melanoma
NCI/ADR-RES ovarian = tested on: NCI/ADR-RES ovarian
SNB-75 CNS = tested on: SNB-75 CNS
KM12 colon = tested on: KM12 colon
MDA-MB-231 breast = tested on: MDA-MB-231 breast
SF-539 CNS = tested on: SF-539 CNS

Row | Compound | TGI (U251 CNS) [µM] | TGI (UACC-62 melanoma) [µM] | TGI (SR leukemia) [µM] | TGI (SF-268 CNS) [µM] | TGI (HS 578T breast) [µM] | TGI (A549 NSCLC) [µM] | TGI (HOP-92 NSCLC) [µM] | TGI (MALME-3M melanoma) [µM] | TGI (NCI/ADR-RES ovarian) [µM] | TGI (SNB-75 CNS) [µM] | TGI (KM12 colon) [µM] | TGI (MDA-MB-231 breast) [µM] | TGI (SF-539 CNS) [µM] | GI50 (SNB-75 CNS) | GI50 (KM12 colon)
1 | CSC1=C(SC)SC(=C2SC3=C(SC(=C4SCCS4)S3)S2)S1 | > 100 | > 100 | > 100 | > 100 | > 100 | > 100 | > 100 | > 100 | > 100 | > 100 | > 100 | > 100 | > 100 | – | –
2 | CCN(CC)c1ccc2cc(-c3nnc(-c4ccccc4)o3)c(=O)oc2c1 | > 100 | > 100 | > 100 | > 100 | > 100 | > 100 | > 100 | > 100 | > 100 | 69 | > 100 | > 77.9 | > 37.5 | – | –
3 | CC1=C(C(N)=O)C(c2ccncc2)C(C#N)=C2SCC(=O)N12 (configuration not stated) | > 100 | > 100 | > 100 | > 100 | > 100 | > 100 | > 100 | > 100 | > 100 | > 100 | > 100 | > 100 | > 100 | – | –
4 | CN(C)C(=O)NCCN1CCCCCc2ccccc21 | > 100 | > 100 | > 100 | > 100 | > 100 | > 100 | > 100 | > 100 | > 100 | – | > 100 | > 100 | > 100 | – | –
5 | CN(Nc1cc(=O)[nH]c(=O)[nH]1)c1ccccc1 | > 100 | > 100 | > 100 | > 100 | > 100 | > 100 | > 100 | > 100 | > 100 | > 100 | > 100 | > 100 | > 100 | – | –
6 | CC(=O)Oc1ccccc1-c1cc2ccccc2oc1=O | – | – | > 100 | > 100 | > 100 | > 100 | – | > 100 | > 100 | > 100 | > 100 | > 100 | > 100 | – | –
7 | NC(CCC(=O)NC(CSC(=O)N(O)c1ccc(Br)cc1)C(=O)NCC(=O)O)C(=O)O (configuration not stated) | > 100 | > 100 | > 100 | > 100 | > 50 | > 100 | > 100 | > 100 | > 50 | > 100 | > 100 | > 50 | > 100 | 62.3 µM and 7.52 µM | > 100 µM and 45 µM
8 | Clc1ccc(Cl)c(Nc2ccnc(SCc3ccccc3)n2)c1 | > 100 | > 100 | > 100 | > 100 | > 100 | > 100 | > 100 | > 100 | > 100 | > 100 | > 100 | > 100 | > 100 | – | –
